# Data from patent US20230099803A1, “OXAZOLIDINONE FOR TREATMENT OF INFECTIONS WITH MYCOBACTERIUM TUBERCULOSIS” (priority 2017, published 2023).
# Tested on: Mycobacterium tuberculosis
# Format: cell-based
# Details: 5x and 10x MIC90 of T145, 5 weeks of incubation
compound,measurement,value
"CC(=O)NC[C@H]1CN(c2ccc3c(c2)Oc2ccccc2O3)C(=O)O1 [T145, N-(((S)-3-(dibenzo[b,e][1,4]dioxin-7-yl)-2-oxooxazolidin-5-yl)methyl)acetamide]",frequency of spontaneous mutants that confer resistance,4.0 × 10^-8
